Laboratory results: PubChem BioAssay AID248 (DTP/NCI, 2004)
“And” between values parts separate entries of the source, which are not always exact repeats. Equal values may be shown once. Toxic doses and inconclusive results are not listed. No stated cut-off is given here; in the data, active means T/C of 150% or more; inactive means T/C below 125%.

Tested on: L1210 leukemia ip in BDF1 mice, survival T/C
Test: NCI In Vivo Anticancer Drug Screen. Data for tumor model L1210 Leukemia (intraperitoneal) in B6D2F1 (BDF1) mice
Settings: endpoint: mean survival time, higher = longer survival
Method in brief: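 In this screen, tumor-bearing mice given compound are compared to those given vehicle, and their survival values are reported as a treated-to-control quotient.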

[1] = dose: 400.0 mg/kg/injection, schedule: Q01DX009 (ip), vehicle: saline with Tween-80
[2] = dose: 100.0 mg/kg/injection, schedule: Q04DX003 (ip), vehicle: saline
[3] = dose: 200.0 mg/kg/injection, schedule: Q04DX003 (ip), vehicle: saline
[4] = dose: 400.0 mg/kg/injection, schedule: Q04DX003 (ip), vehicle: saline
[5] = dose: 100.0 mg/kg/injection, schedule: Q04DX002 (ip), vehicle: saline
[6] = dose: 100.0 mg/kg/injection, schedule: Q04DX003 (ip), vehicle: Klucel (hydroxypropylcellulose) (HPC)
[7] = dose: 200.0 mg/kg/injection, schedule: Q04DX003 (ip), vehicle: Klucel (hydroxypropylcellulose) (HPC)
[8] = dose: 400.0 mg/kg/injection, schedule: Q04DX003 (ip), vehicle: Klucel (hydroxypropylcellulose) (HPC)
[9] = dose: 100.0 mg/kg/injection, schedule: Q04DX002 (ip), vehicle: saline with Tween-80
[10] = dose: 100.0 mg/kg/injection, schedule: Q01DX001 (ip), vehicle: Klucel (hydroxypropylcellulose) (HPC)
[11] = dose: 200.0 mg/kg/injection, schedule: Q01DX001 (ip), vehicle: Klucel (hydroxypropylcellulose) (HPC)
[12] = dose: 400.0 mg/kg/injection, schedule: Q01DX001 (ip), vehicle: Klucel (hydroxypropylcellulose) (HPC)
[13] = dose: 100.0 mg/kg/injection, schedule: Q01DX009 (ip), vehicle: Klucel (hydroxypropylcellulose) (HPC)
[14] = dose: 200.0 mg/kg/injection, schedule: Q01DX009 (ip), vehicle: Klucel (hydroxypropylcellulose) (HPC)
[15] = dose: 400.0 mg/kg/injection, schedule: Q01DX009 (ip), vehicle: Klucel (hydroxypropylcellulose) (HPC)
[16] = dose: 25.0 mg/kg/injection, schedule: Q04DX002 (ip), vehicle: saline with Tween-80
[17] = dose: 50.0 mg/kg/injection, schedule: Q04DX002 (ip), vehicle: saline with Tween-80

Measured: T/C

COc1cc(C=O)c([N+](=O)[O-])cc1OC
inactive: dose: 100.0 mg/kg/injection, schedule: Q01DX001 (ip), vehicle: saline 102 % of control | dose: 200.0 mg/kg/injection, schedule: Q01DX001 (ip), vehicle: saline 102 % of control

S=C(Nc1ccccc1)N(C1CCCCC1)C1CCCCC1
active: [1] 158 % of control

COCBr
inactive: dose: 100.0 mg/kg/injection, schedule: Q01DX009 (ip), vehicle: saline 110 % of control | [2] 103 % of control | dose: 200.0 mg/kg/injection, schedule: Q01DX009 (ip), vehicle: saline 101 % of control | [3] 103 % of control | [4] 94 % of control

CC(=O)N=c1ccccn1O
inactive: [5] 96 % of control | dose: 200.0 mg/kg/injection, schedule: Q04DX002 (ip), vehicle: saline 105 % of control

CC1SCSCS1
inactive: [6] 111 % of control | [7] 88 % of control | [8] 98 % of control

[Cl][Pt+2][Cl].[NH-]C1CCCCC1.[NH-]C1CCCCC1
inactive: dose: 25.0 mg/kg/injection, schedule: Q04DX003 (ip), vehicle: saline 100 % of control | dose: 40.0 mg/kg/injection, schedule: Q04DX003 (ip), vehicle: Klucel (hydroxypropylcellulose) (HPC) 103 % of control | dose: 50.0 mg/kg/injection, schedule: Q04DX003 (ip), vehicle: saline 110 % of control | dose: 80.0 mg/kg/injection, schedule: Q04DX003 (ip), vehicle: Klucel (hydroxypropylcellulose) (HPC) 103 % of control | [9] 94 % of control | [2] 103 % of control | dose: 160.0 mg/kg/injection, schedule: Q04DX003 (ip), vehicle: Klucel (hydroxypropylcellulose) (HPC) 101 % of control | dose: 200.0 mg/kg/injection, schedule: Q04DX002 (ip), vehicle: saline with Tween-80 117 % of control | [3] 108 % of control | dose: 320.0 mg/kg/injection, schedule: Q04DX003 (ip), vehicle: Klucel (hydroxypropylcellulose) (HPC) 106 % of control | dose: 400.0 mg/kg/injection, schedule: Q04DX002 (ip), vehicle: saline with Tween-80 102 % of control | [4] 108 % of control | dose: 640.0 mg/kg/injection, schedule: Q04DX003 (ip), vehicle: Klucel (hydroxypropylcellulose) (HPC) 102 % of control

COC(=O)c1cccc(Nc2ccccc2C(=O)O)c1
inactive: [10] 102 % of control | [11] 96 % of control | [12] 93 % of control

COc1ccc(C(=O)NN2C(N)=NC(N)=NC2(C)C)cc1
inactive: [2] 94 % of control | [3] 97 % of control

COc1ccc(NC(=O)Nc2cc([N+](=O)[O-])ccc2C)cc1[N+](=O)[O-]
inactive: [13] 98 % of control | [14] 96 % of control | [15] 104 % of control

COC(=O)CCCCCN1C(=O)c2cccc([N+](=O)[O-])c2C1=O
inactive: dose: 100.0 mg/kg/injection, schedule: Q01DX001 (ip), vehicle: saline with Tween-80 104 % of control | dose: 200.0 mg/kg/injection, schedule: Q01DX001 (ip), vehicle: saline with Tween-80 97 % of control | dose: 400.0 mg/kg/injection, schedule: Q01DX001 (ip), vehicle: saline with Tween-80 100 % of control

Cc1cc(C)c(C)c(OC(=O)Nc2cc(Cl)ccc2C)c1
inactive: [13] 94 % of control | [14] 94 % of control | [15] 95 % of control

CC(C)(C)N(O)C(=O)NC1CCCCC1
inactive: [10] 92 % of control | [11] 91 % of control | [12] 103 % of control

CC1(C)C2CCC13CC(=O)OC3C2 (configuration not stated)
inactive: dose: 0.78 mg/kg/injection, schedule: Q01DX009 (ip), vehicle: saline 105 % of control | dose: 0.78 mg/kg/injection, schedule: Q04DX003 (ip), vehicle: acetone 101 % of control | dose: 1.56 mg/kg/injection, schedule: Q01DX009 (ip), vehicle: saline 100 % of control | dose: 1.56 mg/kg/injection, schedule: Q04DX003 (ip), vehicle: acetone 92 % of control | dose: 3.12 mg/kg/injection, schedule: Q01DX009 (ip), vehicle: saline 102 % of control | dose: 3.12 mg/kg/injection, schedule: Q04DX003 (ip), vehicle: acetone 98 % of control | dose: 4.6 mg/kg/injection, schedule: Q01DX009 (ip), vehicle: saline 89 % of control | dose: 7.0 mg/kg/injection, schedule: Q01DX009 (ip), vehicle: saline 91 % of control | dose: 10.5 mg/kg/injection, schedule: Q01DX009 (ip), vehicle: saline 104 % of control | dose: 15.0 mg/kg/injection, schedule: Q01DX009 (ip), vehicle: acetone 92 % of control

O=C(OCCO)c1ccccc1O
inactive: dose: 75.0 mg/kg/injection, schedule: Q01DX009 (ip), vehicle: saline sonified 102 % of control | [2] 102 % of control | dose: 150.0 mg/kg/injection, schedule: Q01DX009 (ip), vehicle: saline sonified 116 % of control | [3] 98 % of control | dose: 300.0 mg/kg/injection, schedule: Q01DX009 (ip), vehicle: saline sonified 108 % of control | [4] 102 % of control

Nc1nc2nc(N=Nc3ccc(S(N)(=O)=O)cc3)[nH]c2c(=O)[nH]1
inactive: [6] 96 % of control | [7] 93 % of control | [8] 99 % of control

C=CCn1c(=S)[nH]c2ccccc2c1=O
inactive: dose: 100.0 mg/kg/injection, schedule: Q04DX003 (ip), vehicle: saline with Tween-80 93 % of control | dose: 200.0 mg/kg/injection, schedule: Q01DX009 (ip), vehicle: saline with Tween-80 91 % of control | dose: 200.0 mg/kg/injection, schedule: Q04DX003 (ip), vehicle: saline with Tween-80 94 % of control | [1] 89 % of control | dose: 400.0 mg/kg/injection, schedule: Q04DX003 (ip), vehicle: saline with Tween-80 96 % of control

O=C(OCC1OC(n2c(=O)[nH]cc(F)c2=O)C(OC(=O)c2ccccc2)C1OC(=O)c1ccccc1)c1ccccc1 (configuration not stated)
inactive: dose: 12.5 mg/kg/injection, schedule: Q01DX005 (ip), vehicle: saline 121 % of control | dose: 20.0 mg/kg/injection, schedule: Q01DX005 (ip), vehicle: Klucel (hydroxypropylcellulose) (HPC) 108 % of control | dose: 100.0 mg/kg/injection, schedule: Q01DX005 (ip), vehicle: saline 94 % of control | dose: 200.0 mg/kg/injection, schedule: Q01DX005 (ip), vehicle: saline 93 % of control and 92 % of control
active: dose: 25.0 mg/kg/injection, schedule: Q01DX005 (ip), vehicle: saline 152 % of control | dose: 50.0 mg/kg/injection, schedule: Q01DX005 (ip), vehicle: saline 196 % of control and 206 % of control | dose: 80.0 mg/kg/injection, schedule: Q01DX005 (ip), vehicle: Klucel (hydroxypropylcellulose) (HPC) 209 % of control

Cc1csc2ncnc(Cl)c12
inactive: [16] 98 % of control | [17] 91 % of control | [9] 94 % of control

N#CCN1C(=O)c2ccccc2C1=O
inactive: dose: 12.5 mg/kg/injection, schedule: Q01DX009 (ip), vehicle: Klucel (hydroxypropylcellulose) (HPC) 96 % of control | dose: 12.5 mg/kg/injection, schedule: Q04DX003 (ip), vehicle: Klucel (hydroxypropylcellulose) (HPC) 100 % of control | dose: 25.0 mg/kg/injection, schedule: Q01DX009 (ip), vehicle: Klucel (hydroxypropylcellulose) (HPC) 101 % of control | dose: 25.0 mg/kg/injection, schedule: Q04DX003 (ip), vehicle: Klucel (hydroxypropylcellulose) (HPC) 98 % of control | dose: 50.0 mg/kg/injection, schedule: Q04DX003 (ip), vehicle: Klucel (hydroxypropylcellulose) (HPC) 100 % of control | dose: 75.0 mg/kg/injection, schedule: Q01DX001 (ip), vehicle: other 107 % of control

CC(=O)N1CC(n2cnc3c(N)ncnc32)CC1CO (configuration not stated)
inactive: dose: 12.5 mg/kg/injection, schedule: Q04DX002 (ip), vehicle: saline with Tween-80 102 % of control | [16] 98 % of control | [17] 94 % of control

N#Cc1nc(CSc2ccc(Cl)cc2)cnc1N
inactive: [10] 95 % of control | [11] 92 % of control | [12] 89 % of control

CCCCc1cnc(NCCCC(N)C(=O)O)nc1 (configuration not stated)
inactive: dose: 25.0 mg/kg/injection, schedule: Q04DX002 (ip), vehicle: saline 100 % of control | dose: 50.0 mg/kg/injection, schedule: Q04DX002 (ip), vehicle: saline 95 % of control | [5] 92 % of control
